Usually EC50 stands for the concentration needed to bring the measured effect to its halfway point. By Kd is commonly meant a measure of binding affinity in units of concentration. Low readings indicate higher affinity, high ones lower affinity.

Numbered stars: 1 amine (or outer) side, 2 acyl side, 3 side chain; on linkers, the order of the positions; unused ones are H or OH. Bridge positions count the residues as written; N and C are the ends. Square brackets hold non-standard residues; d marks the D form. Peptide text beside a SMILES is read from it. ξ: configuration not given here. ξαMeNle(6-ylidene) = CC(CCCC=[*:3])(N[*:1])C(=O)[*:2]; Nle = CCCC[C@H](N)C(=O)O

One series deals with RS4;11. The format is cell-based, human. As to conditions: 24 h. The method in brief:
(§1)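 Viability is determined after a 24 h, 37 °C treatment of 4000 cells/well in Opti-MEM with or without 2% human serum. Final macrocycle concentrations span 0.6–20 μM serum-free and 1.5–50 μM in serum. EC50 comes from CellTiter-Glo signal as percentage of DMSO-treated cells, run in duplicate.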

Another series relates to A375. In kind it is cell-based, human. As to conditions: 24 h. A digest of the protocol:
as §1

Another series has as its system NCI-H82 (SCLC-MCL1+). The format is cell-based, human. As to conditions: 24 h. The method in brief:
as §1

The test system of another series is Raji. The format is cell-based, human. As to conditions: 24 h. A digest of the protocol: as §1
The test system of the next series is Jurkat. The format is cell-based, human. Conditions: 24 h. A digest of the protocol: as §1
The subject of the next series is MDA-MB231-Met. The format is cell-based, human. As to conditions: 24 h. A digest of the protocol: as §1
Another series relates to OVCAR8. The format is cell-based, human. As to conditions: 24 h. The method in brief:
as §1

For the next series, the system named is PC3. In kind it is cell-based, human. Conditions: 24 h. The method in brief: as §1
A further series deals with SEMK2. The format is cell-based, human. Conditions: 24 h. The method in brief: as §1
The next series relates to DHL-6. The format is cell-based, human. Conditions: 24 h. A digest of the protocol: as §1
Another series has as its system Molt-4. In kind it is cell-based, human. As to conditions: 24 h. A digest of the protocol:
as §1

The test system of the next series is MM1S. In kind it is cell-based, human. As to conditions: 24 h. A digest of the protocol: as §1
Another series deals with H-460. Kind of series: MTT cell viability assay, H-460. In kind it is cell-based, human. Conditions: 20 μM, MTT 48 hrs, FIG. 1. As for the experimental part:
(§2) Cell viability assays shown in FIGS. 1-32 were performed according to the following protocol. Tumor cell lines were grown in specific serum-supplemented media (growth media) as necessary. A day prior to the initiation of the study, cells were plated at optimal cell density (15,000 to 25,000 cells/well) in 200 μl growth media in microtiter plates. The next day, cells were washed twice in serum-free/phenol red-free RPMI complete media (assay buffer) and a final volume of 100 μl assay buffer was added to each well. Human peripheral blood lymphocytes (hPBLs) were isolated from Buffy coats (San Diego Blood Bank) using Ficoll-Paque gradient separation and plated on the day of the experiment at 25,000 cells/well.
(§3) Peptidomimetic macrocycles were diluted from 1 mM stocks (100% DMSO) in sterile water to prepare 400 μM working solutions. The peptidomimetic macrocycles and controls were then diluted 10 or […] or alternatively serially two-fold diluted in assay buffer in dosing plates to provide concentrations of either 40 and 20 μM or between 1.2 and 40 μM, respectively. […]
(§4) Towards the end of the 4 hour incubation time, 22 μl FBS was added to each well for a total concentration of 10% FBS. […] At the end of the incubation period, MTT assay was performed according to manufacturer's instructions (Sigma, catalog #M2128) and absorbance was measured at 560 nm using Dynex Opsys MR Plate reader. […]
For orientation: Formazan colour is commonly taken as a measure of viable cells.

The test system of series [1] is resting human peripheral lymphocytes (hPBLs). Kind of series: Cell viability of resting hPBLs. In kind it is cell-based. As to conditions: FIG. 16. As for the experimental part:
as §2, §3, §4

In another series the target is Bcl-xL (Homo sapiens, UniProt Q07817). The experiment in a line: Kd, μM | Bcl-xL. An excerpt: Table printed on a drawing sheet, Figure 27
Head of the field: Kd, μM | Bcl-xL
Where the first naming reader finds the target: head: Kd, μM | Bcl-xL

Series [2] has as its system leukemia/lymphoma human cell lines. The experiment in a line: MTT cell viability assay, leukemia/lymphoma lines. In kind it is cell-based. Conditions: 20 μM, MTT 48 hrs, FIG. 1. The method, then:
as §2, §3, §4

A further series deals with U251. The experiment in a line: MTT cell viability assay, U251. In kind it is cell-based, human. As to conditions: 20 μM, MTT 48 hrs, FIG. 1. The method, then:
as §2, §3, §4

For a further series, the system named is NCI-H146. Kind of series: MTT cell viability assay, NCI-H146. In kind it is cell-based, human. As to conditions: 20 μM, MTT 48 hrs, FIG. 1. The method, then:
as §2, §3, §4

Chain of Bcl-xL (Q07817 whole entry, looked up): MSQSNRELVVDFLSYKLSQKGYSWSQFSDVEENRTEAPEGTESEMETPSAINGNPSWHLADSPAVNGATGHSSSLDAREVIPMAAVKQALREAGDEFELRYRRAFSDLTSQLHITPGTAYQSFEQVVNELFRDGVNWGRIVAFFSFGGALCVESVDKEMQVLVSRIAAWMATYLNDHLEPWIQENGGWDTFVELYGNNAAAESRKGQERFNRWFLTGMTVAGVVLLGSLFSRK

On to `CCCC[C@H](NC(=O)C1(C)CCCC=CCCCC(C)(NC(=O)[C@H](C)NC(=O)[C@H](CC(C)C)NC(=O)[C@H](Cc2c[nH]cn2)NC(=O)[C@H](CCCNC(=N)N)NC(=O)[C@H](C)NC(=O)[C@@H](NC(=O)[C@H](CC(N)=O)NC(=O)[C@H](CCCNC(=N)N)NC(=O)[C@@H](NC(=O)[C@@H](NC(=O)[C@H](CC(=O)O)NC(C)=O)[C@@H](C)CC)[C@@H](C)CC)[C@@H](C)CC)C(=O)N[C@@H](C(C)C)C(=O)NCC(=O)N[C@@H](CC(=O)O)C(=O)N1)C(=O)N[C@@H](CC(=O)O)C(=O)N[C@@H](CCCNC(=N)N)C(=O)N[C@@H](CO)C(=O)N[C@H](C(N)=O)[C@@H](C)CC` (stereo partly drawn) [SP-1] (Ac-DIIRNIARHLA[ξαMeNle(6-ylidene)]VGD[ξαMeNle(6-ylidene)][Nle]DRSI-NH2; staple 12-16), for which the half-maximal effective concentration (EC50) with RS4;11 is more than 20 µM; with A375 it was 11 µM; with NCI-H82 (SCLC-MCL1+), 2.5 µM; in the series with Raji it was 13 µM; in the series with Jurkat it was 2.5 µM; with MDA-MB231-Met, 9.8 µM. Further, the half-maximal effective concentration (EC50) in the series with OVCAR8 was determined as 20 µM; in the series on PC3, 20 µM; in the series with SEMK2, 10 µM; with DHL-6, 7 µM; in the series on Molt-4 it was 4.3 µM; in the series with MM1S it was 3.5 µM. In addition, the “sensitivity of H-460 (NSCLC)” value in the series with H-460 is given as “resistant”. Further, in series [1], the “programmed cell death of resting hPBLs” value is on record as “does not induce programmed cell death”. The same compound displayed a dissociation constant Kd on Bcl-xL of less than 0.1 µM. For the same compound, in [2], the “sensitivity of all leukemia/lymphoma lines tested” value is on record as “sensitive”. Also, the “sensitivity of U251 (glioma)” value with U251 is reported as “resistant”. Further, the “apoptosis of NCI-H146 (SCLC)” value in the series on NCI-H146 was “induced apoptosis”.

The record behind these values is patent US20150038430A1, “THERAPEUTIC PEPTIDOMIMETIC MACROCYCLES” (AILERON Therapeutics, Inc., priority 2008, published 2015).
